Laboratory results from patent publication US20160016998A1, “HIGH-AFFINITY MATRIPTASE INHIBITORS” (MERCK PATENT GMBH, priority 2013, published 2016).
Like-named read-outs stand apart in the source and are kept apart here. Bridge positions count the residues as written; N and C are the ends. Peptide text beside a SMILES is read from it.

What was measured:
[1] = disulfide bond, air (O2), (NH4)2CO3 buffer pH 8.4, water, 168.0 h
matriptase = biological target: T1, matriptase (Homo sapiens, UniProt Q9Y5Y6); experiment: Matriptase enzyme inhibition assay with chromogenic substrate Boc-QAR-pNA; format: biochemical; conditions: for matriptase affinity / inhibitor potency in words: enzyme inhibition assays, comparator as worded; for Relative Activity: ratio Ki of compound / Ki of SFTI-1[1,14]; for Sum of Increment Contributions: sum of ΔBG differences of the single modifications
T1 construct: made in house
T1 sequence (Q9Y5Y6 615-855 limits assumed): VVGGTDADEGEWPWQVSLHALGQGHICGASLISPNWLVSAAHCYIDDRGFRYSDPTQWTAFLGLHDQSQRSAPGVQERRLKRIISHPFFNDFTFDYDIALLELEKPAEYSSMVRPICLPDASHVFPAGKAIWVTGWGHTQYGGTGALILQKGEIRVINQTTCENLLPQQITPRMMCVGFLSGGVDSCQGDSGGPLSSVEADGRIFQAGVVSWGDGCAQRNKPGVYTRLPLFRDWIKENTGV
Method: (§1) Recombinant production, autocatalytic activation and purification of matriptase were conducted as previously described. Bovine trypsin was purchased from Sigma-Aldrich. Active-site titration and determination of Michaelis-Menten constants KM for the chromogenic substrate Boc-QAR-pNA was performed as reported earlier.
All experiments were performed in triplicate. […] Slopes of the initial reaction velocities (steady-state) were calculated and normalized to the data of the uninhibited enzymatic hydrolysis of Boc-QAR-pNA. The determined v/v0 values were plotted against the concentration of the inhibitor.
(§2) Errors were calculated through propagation of errors (compare Tischler et al.).[17]

Bovine trypsin = biological target: T2, Bovine trypsin (Bos taurus, UniProt P00760); experiment: Trypsin enzyme inhibition assay with chromogenic substrate Boc-QAR-pNA; format: biochemical; conditions: pH 7.6
T2 construct: purchased Sigma-Aldrich
T2 sequence (P00760 24-246): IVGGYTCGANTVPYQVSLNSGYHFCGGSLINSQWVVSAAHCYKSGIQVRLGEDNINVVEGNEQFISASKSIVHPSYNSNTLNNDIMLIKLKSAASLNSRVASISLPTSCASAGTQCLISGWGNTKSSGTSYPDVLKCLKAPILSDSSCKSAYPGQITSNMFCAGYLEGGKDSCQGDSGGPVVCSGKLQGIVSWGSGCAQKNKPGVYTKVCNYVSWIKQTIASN
Method: as §1
All experiments were performed in triplicate. Active-site titrated matriptase (final concentration: [E]=0.9 nM) or trypsin (final concentration: [E]=0.5 nM) were incubated with the respective inhibitor in different concentrations [I] at pH 7.6 or 8.5 for 30 min. Then, the chromogenic substrate Boc-QAR-pNA (final concentration: [S]=250 μM) was added. The residual proteolytic activity (v/v0) was determined by monitoring the absorption of the corresponding samples in 96-well plates (NUNC, round bottom, clear) at 405 nm in 60 sec intervals over 30 min at RT using the Tecan GENios microplate reader. Slopes of the initial reaction velocities (steady-state) were calculated and normalized to the data of the uninhibited enzymatic hydrolysis of Boc-QAR-pNA. The determined v/v0 values were plotted against the concentration of the inhibitor. The resulting dose-response curves were fitted either by equation 1 or in case of tight-binding inhibition (trypsin: 42; matriptase: 43 at pH 8.5, 44 at pH 7.6 and 8.5) by equation 2 through non-linear regression.
as §2

Structure (SMILES)	matriptase affinity / inhibitor potency in words (matriptase; pH 7.6)	ΔBG(x)-ΔBG(SFTI-1[1,14]) (matriptase; matriptase, pH 7.6 (Table 2)) [kcal/mol]	Ki (matriptase; pH 7.6 (Table 2)) [nM]	Relative Activity (matriptase; matriptase, pH 7.6 (Table 2))	Sum of Increment Contributions (matriptase; matriptase, pH 7.6) [kcal/mol]	Ki (Bovine trypsin) [nM]	Ki (matriptase; pH 8.5 (values in brackets)) [nM]	also measured
CC[C@H](C)[C@@H]1NC(=O)[C@@H]2CCCN2C(=O)[C@@H]2CCCN2C(=O)[C@H](Cn2cc(CN)nn2)NC(=O)[C@H](CO)NC(=O)[C@H](CCCCN)NC(=O)[C@H]([C@@H](C)O)NC(=O)[C@@H](NC(=O)[C@H](CCCNC(=N)N)NC(=O)CN)CSSC[C@@H](C(=O)N[C@@H](Cc2ccccc2)C(=O)N2CCC[C@H]2C(=O)N[C@@H](CC(=O)O)C(=O)O)NC1=O	–	–	–	–	–	–	–	ring closure, yield of all isomers ([1]; from CC[C@H](C)[C@H](NC(=O)[C@@H]1CCCN1C(=O)[C@@H]1CCCN1C(=O)[C@H](Cn1cc(CN)nn1)NC(=O)[C@H](CO)NC(=O)[C@H](CCCCN)NC(=O)[C@@H](NC(=O)[C@H](CS)NC(=O)[C@H](CCCNC(=N)N)NC(=O)CN)[C@@H](C)O)C(=O)N[C@@H](CS)C(=O)N[C@@H](Cc1ccccc1)C(=O)N1CCC[C@H]1C(=O)N[C@@H](CC(=O)O)C(=O)O, 0.63 mM, 4 steps): 17%
CC[C@H](C)[C@@H]1NC(=O)[C@H](CO)NC(=O)[C@H](CCCCN)NC(=O)[C@H]([C@@H](C)O)NC(=O)[C@@H](NC(=O)[C@H](CCCNC(=N)N)NC(=O)CN)CSSC[C@@H](C(=O)N[C@@H](Cc2ccccc2)C(=O)N2CCC[C@H]2C(=O)N[C@@H](CC(=O)O)C(=O)O)NC(=O)[C@H](CCCCN)NC(=O)[C@@H]2CCCN2C(=O)[C@@H]2CCCN2C1=O	–	–	–	–	–	–	–	ring closure, yield of all isomers ([1]; from CC[C@H](C)[C@H](NC(=O)[C@H](CO)NC(=O)[C@H](CCCCN)NC(=O)[C@@H](NC(=O)[C@H](CS)NC(=O)[C@H](CCCNC(=N)N)NC(=O)CN)[C@@H](C)O)C(=O)N1CCC[C@H]1C(=O)N1CCC[C@H]1C(=O)N[C@@H](CCCCN)C(=O)N[C@@H](CS)C(=O)N[C@@H](Cc1ccccc1)C(=O)N1CCC[C@H]1C(=O)N[C@@H](CC(=O)O)C(=O)O, […], 29 steps): 3.9%
CC[C@H](C)[C@@H]1NC(=O)[C@H](CO)NC(=O)[C@H](CCCCN)NC(=O)[C@H]([C@@H](C)O)NC(=O)[C@@H](NC(=O)[C@H](CCCNC(=N)N)NC(=O)CN)CSSC[C@@H](C(=O)N[C@@H](Cc2ccccc2)C(=O)N2CCC[C@H]2C(=O)N[C@@H](CC(=O)O)C(=O)O)NC(=O)[C@H](Cn2cc(CN)nn2)NC(=O)[C@@H]2CCCN2C(=O)[C@@H]2CCCN2C1=O	–	–	–	–	–	–	–	ring closure, yield of all isomers ([1]; from CC[C@H](C)[C@H](NC(=O)[C@H](CO)NC(=O)[C@H](CCCCN)NC(=O)[C@@H](NC(=O)[C@H](CS)NC(=O)[C@H](CCCNC(=N)N)NC(=O)CN)[C@@H](C)O)C(=O)N1CCC[C@H]1C(=O)N1CCC[C@H]1C(=O)N[C@@H](Cn1cc(CN)nn1)C(=O)N[C@@H](CS)C(=O)N[C@@H](Cc1ccccc1)C(=O)N1CCC[C@H]1C(=O)N[C@@H](CC(=O)O)C(=O)O, 0.63 mM, 22 steps): 21.2%
CC[C@H](C)[C@@H]1NC(=O)[C@H](CO)NC(=O)[C@H](CCCCN)NC(=O)[C@H]([C@@H](C)O)NC(=O)[C@@H](NC(=O)[C@H](CCCNC(=N)N)NC(=O)CN)CSSC[C@@H](C(=O)N[C@@H](Cc2c[nH]cn2)C(=O)N2CCC[C@H]2C(=O)N[C@@H](CC(=O)O)C(=O)O)NC(=O)[C@H](Cn2cc(CN)nn2)NC(=O)[C@@H]2CCCN2C(=O)[C@@H]2CCCN2C1=O [Compound 42]	further increased matriptase affinity compared to SFTI-1[1,14] derivatives 9, 18, and 22	1.22 ± 0.096	89.5 ± 11.1	0.13	1.65 ± 0.14	9.2 ± 2.1	–	ring closure, yield of all isomers ([1]; from CC[C@H](C)[C@H](NC(=O)[C@H](CO)NC(=O)[C@H](CCCCN)NC(=O)[C@@H](NC(=O)[C@H](CS)NC(=O)[C@H](CCCNC(=N)N)NC(=O)CN)[C@@H](C)O)C(=O)N1CCC[C@H]1C(=O)N1CCC[C@H]1C(=O)N[C@@H](Cn1cc(CN)nn1)C(=O)N[C@@H](CS)C(=O)N[C@@H](Cc1c[nH]cn1)C(=O)N1CCC[C@H]1C(=O)N[C@@H](CC(=O)O)C(=O)O, 0.63 mM, 30 steps): 1.2%
CC[C@H](C)[C@@H]1NC(=O)[C@H](CO)NC(=O)[C@H](CCCCN)NC(=O)[C@H]([C@@H](C)O)NC(=O)[C@@H](NC(=O)[C@H](CCCNC(=N)N)NC(=O)CN)CSSC[C@@H](C(=O)N[C@@H](Cc2c[nH]cn2)C(=O)N2CCC[C@H]2C(=O)N[C@@H](CC(=O)O)C(=O)O)NC(=O)[C@H](CCCNC(=N)N)NC(=O)[C@@H]2CCCN2C(=O)[C@@H]2CCCN2C1=O [Compound 43] (H-GRCTKSIPPRCHPD-OH; disulfide 3-11; N-terminus assumed)	further increased matriptase affinity compared to SFTI-1[1,14] derivatives 9, 18, and 22	2.46 ± 0.096	11	0.016	2.29 ± 0.14	11.2 ± 2	1.1	sum of individual favorable contributions to ΔBG (matriptase; contributions of compounds 18 and 22): 2.29 ± 0.14 kcal/mol; difference of the free energies of binding/dissociation ΔBG between compound and SFTI-1[1,14] (matriptase; matriptase, pH 7.6): 2.46 ± 0.096 kcal/mol
CC[C@H](C)[C@@H]1NC(=O)[C@H](CO)NC(=O)[C@H](CCCCN)NC(=O)[C@H]([C@@H](C)O)NC(=O)[C@@H](NC(=O)[C@H](CCCNC(=N)N)NC(=O)CN)CSSC[C@@H](C(=O)N[C@@H](Cc2c[nH]cn2)C(N)=O)NC(=O)[C@H](CCCNC(=N)N)NC(=O)[C@@H]2CCCN2C(=O)[C@@H]2CCCN2C1=O [Compound 44] (H-GRCTKSIPPRCH-NH2; disulfide 3-11; N-terminus assumed)	–	2.8 ± 0.14	6.2 ± 1.2	0.009	–	38 ± 11.1	2.3 ± 0.8	selectivity towards matriptase over trypsin (matriptase; pH 7.6): 6 fold
